Laboratory results published in ChEMBL document CHEMBL3045449, “2-Bromo-1-ethoxy-(2,4-dichloro)styrene and 2,2-dibromo-1-ethoxy-(2,4-dichloro)styrenethe two impurities of bromfenvinphos; their identification, synthesis and full characterization” (J Pestic Sci, 2010).
Activity calls are given as the source filed them.

Assays:
Type in all cases: functional, organism-based
[1] = system: Musca domestica; test: Insecticidal activity against Musca domestica (house fly)
[2] = system: Blatta orientalis; test: Insecticidal activity against Blatta orientalis
[3] = system: Tetranychus urticae; test: Insecticidal activity against Tetranychus urticae (two-spotted spider mite)
[4] = system: Sitophilus granarius; test: Insecticidal activity against Sitophilus granarius (granary weevil)

Measured: Activity

CCOC(=C(Br)Br)c1ccc(Cl)cc1Cl
inactive: all assays above

CCOC(=CBr)c1ccc(Cl)cc1Cl (mixture of isomers)
inactive: all assays above
